Data: ChEMBL document CHEMBL3751710, “Cyclic RGD peptidomimetics containing 4- and 5-amino-cyclopropane pipecolic acid (CPA) templates as dual αVβ3 and α5β1 integrin ligands” (Bioorg Med Chem, 2016)
pIC50: −log10 of the molar value.

What was measured:
[1] = molecular target: Integrin alpha-V/beta-3 (Homo sapiens, UniProt P05106+P06756); assay: Binding affinity to integrin alphav/beta3 heterodimer in human M21 cells assessed as inhibition of integrin-mediated human M21 cell adhesion to vitronectin incubated for 30 mins in presence of MnCl2; assay type: cell-based
[2] = molecular target: Integrin alpha-5/beta-1 (Homo sapiens, UniProt P05556+P08648); assay: Binding affinity to integrin alpha5/beta1 heterodimer in human K562 cells assessed as inhibition of integrin-mediated human K562 cell adhesion to fibronectin incubated for 30 mins in presence of MnCl2; assay type: cell-based
Chain of Integrin alpha-5/beta-1 (P05556 21-798 limits assumed): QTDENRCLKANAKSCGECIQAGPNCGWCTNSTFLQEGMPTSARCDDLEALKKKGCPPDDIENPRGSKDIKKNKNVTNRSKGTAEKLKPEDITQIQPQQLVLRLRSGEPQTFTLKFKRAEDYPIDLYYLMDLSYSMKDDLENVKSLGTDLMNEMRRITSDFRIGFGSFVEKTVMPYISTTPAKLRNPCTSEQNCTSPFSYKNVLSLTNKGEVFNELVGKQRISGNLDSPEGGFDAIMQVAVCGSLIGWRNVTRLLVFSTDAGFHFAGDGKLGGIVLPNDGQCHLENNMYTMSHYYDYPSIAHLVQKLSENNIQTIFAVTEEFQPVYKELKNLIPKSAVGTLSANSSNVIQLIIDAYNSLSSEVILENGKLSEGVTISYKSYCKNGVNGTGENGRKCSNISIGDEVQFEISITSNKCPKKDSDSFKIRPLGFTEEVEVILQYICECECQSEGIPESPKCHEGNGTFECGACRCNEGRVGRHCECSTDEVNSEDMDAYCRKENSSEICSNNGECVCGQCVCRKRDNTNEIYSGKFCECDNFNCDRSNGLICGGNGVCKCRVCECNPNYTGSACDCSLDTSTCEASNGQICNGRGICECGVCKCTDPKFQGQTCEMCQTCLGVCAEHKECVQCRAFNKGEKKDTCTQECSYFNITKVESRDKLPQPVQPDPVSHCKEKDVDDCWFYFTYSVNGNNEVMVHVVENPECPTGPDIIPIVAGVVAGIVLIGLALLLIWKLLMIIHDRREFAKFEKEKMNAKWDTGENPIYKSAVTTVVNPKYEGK
Chain of Integrin alpha-5/beta-1 (P08648 42-894 limits assumed): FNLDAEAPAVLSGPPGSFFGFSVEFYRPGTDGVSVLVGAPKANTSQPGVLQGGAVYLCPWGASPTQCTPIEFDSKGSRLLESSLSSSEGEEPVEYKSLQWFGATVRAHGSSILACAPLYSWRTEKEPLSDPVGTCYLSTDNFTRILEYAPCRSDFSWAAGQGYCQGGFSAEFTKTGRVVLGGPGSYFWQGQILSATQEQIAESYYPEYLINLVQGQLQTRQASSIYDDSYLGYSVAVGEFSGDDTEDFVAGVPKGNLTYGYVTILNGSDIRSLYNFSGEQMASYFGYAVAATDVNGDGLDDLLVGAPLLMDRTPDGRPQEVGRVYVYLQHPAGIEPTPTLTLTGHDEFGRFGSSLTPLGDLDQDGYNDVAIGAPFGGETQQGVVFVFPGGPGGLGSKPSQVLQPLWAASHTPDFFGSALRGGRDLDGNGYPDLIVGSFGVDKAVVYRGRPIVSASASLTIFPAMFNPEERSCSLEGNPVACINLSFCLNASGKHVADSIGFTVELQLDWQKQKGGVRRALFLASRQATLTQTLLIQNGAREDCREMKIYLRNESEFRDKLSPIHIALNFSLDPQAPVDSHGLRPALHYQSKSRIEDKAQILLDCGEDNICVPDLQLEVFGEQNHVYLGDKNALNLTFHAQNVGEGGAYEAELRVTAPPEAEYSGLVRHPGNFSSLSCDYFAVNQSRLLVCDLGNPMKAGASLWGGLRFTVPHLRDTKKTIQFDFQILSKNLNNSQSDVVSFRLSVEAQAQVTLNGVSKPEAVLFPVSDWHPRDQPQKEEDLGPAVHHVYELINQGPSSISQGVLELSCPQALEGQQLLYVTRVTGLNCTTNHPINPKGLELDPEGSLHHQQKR
Chain of Integrin alpha-5/beta-1 (P08648 895-1049 limits assumed): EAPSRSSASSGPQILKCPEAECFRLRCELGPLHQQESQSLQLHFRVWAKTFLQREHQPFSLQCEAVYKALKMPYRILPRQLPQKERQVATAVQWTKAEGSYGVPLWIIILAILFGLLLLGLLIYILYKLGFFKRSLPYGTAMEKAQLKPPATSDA

Chain of Integrin alpha-V/beta-3 (P05106 27-788 limits assumed): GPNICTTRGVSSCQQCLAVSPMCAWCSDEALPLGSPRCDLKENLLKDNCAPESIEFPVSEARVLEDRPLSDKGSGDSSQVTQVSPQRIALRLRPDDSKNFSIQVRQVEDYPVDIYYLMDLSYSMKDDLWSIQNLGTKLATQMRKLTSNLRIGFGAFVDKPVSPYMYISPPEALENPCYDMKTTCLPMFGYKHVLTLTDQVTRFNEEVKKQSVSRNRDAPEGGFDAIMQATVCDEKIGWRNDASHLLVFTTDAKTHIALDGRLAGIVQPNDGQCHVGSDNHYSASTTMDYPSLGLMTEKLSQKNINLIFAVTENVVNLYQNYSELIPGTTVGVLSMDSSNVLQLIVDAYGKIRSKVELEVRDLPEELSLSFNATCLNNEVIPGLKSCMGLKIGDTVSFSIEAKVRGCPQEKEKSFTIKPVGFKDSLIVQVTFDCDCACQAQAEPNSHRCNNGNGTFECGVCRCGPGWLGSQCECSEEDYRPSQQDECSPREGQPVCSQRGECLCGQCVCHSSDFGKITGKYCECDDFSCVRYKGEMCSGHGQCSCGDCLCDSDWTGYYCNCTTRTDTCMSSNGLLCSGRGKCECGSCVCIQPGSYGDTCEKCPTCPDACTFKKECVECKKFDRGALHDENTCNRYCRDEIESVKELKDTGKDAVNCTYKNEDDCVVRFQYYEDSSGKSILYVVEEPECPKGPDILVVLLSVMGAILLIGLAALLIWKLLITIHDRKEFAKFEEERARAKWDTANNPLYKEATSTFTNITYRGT
Chain of Integrin alpha-V/beta-3 (P06756 31-889 limits assumed): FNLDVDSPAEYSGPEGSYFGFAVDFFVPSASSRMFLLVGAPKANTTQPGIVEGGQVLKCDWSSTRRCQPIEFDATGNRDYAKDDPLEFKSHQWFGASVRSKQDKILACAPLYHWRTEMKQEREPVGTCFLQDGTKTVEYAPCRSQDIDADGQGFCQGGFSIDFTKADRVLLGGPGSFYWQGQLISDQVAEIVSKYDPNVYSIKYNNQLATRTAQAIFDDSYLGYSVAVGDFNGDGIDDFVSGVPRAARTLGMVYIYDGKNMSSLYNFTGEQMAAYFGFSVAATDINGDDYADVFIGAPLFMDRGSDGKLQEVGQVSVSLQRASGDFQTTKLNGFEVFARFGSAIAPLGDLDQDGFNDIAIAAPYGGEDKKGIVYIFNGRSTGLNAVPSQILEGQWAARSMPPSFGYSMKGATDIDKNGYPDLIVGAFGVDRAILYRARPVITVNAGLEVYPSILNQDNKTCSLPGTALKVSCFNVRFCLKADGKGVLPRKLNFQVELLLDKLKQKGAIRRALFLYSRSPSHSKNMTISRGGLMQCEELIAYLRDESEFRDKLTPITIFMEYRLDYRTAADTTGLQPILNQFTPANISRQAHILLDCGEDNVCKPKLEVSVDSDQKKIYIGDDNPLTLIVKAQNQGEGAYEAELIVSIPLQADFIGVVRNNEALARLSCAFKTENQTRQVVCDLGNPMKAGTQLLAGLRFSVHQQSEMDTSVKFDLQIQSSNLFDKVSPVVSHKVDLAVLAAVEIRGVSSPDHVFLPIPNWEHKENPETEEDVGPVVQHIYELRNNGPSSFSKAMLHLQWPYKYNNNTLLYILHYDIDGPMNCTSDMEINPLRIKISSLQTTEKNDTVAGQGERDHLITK
Chain of Integrin alpha-V/beta-3 (P06756 891-1048 limits assumed): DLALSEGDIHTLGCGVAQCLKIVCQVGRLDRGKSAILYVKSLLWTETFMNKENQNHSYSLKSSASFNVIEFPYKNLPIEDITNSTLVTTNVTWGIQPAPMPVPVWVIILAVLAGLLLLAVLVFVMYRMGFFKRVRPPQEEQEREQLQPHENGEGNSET

Structure (SMILES) | pIC50 [1] | pIC50 [2]
COC(=O)N1CC[C@H]2NC(=O)[C@H](CC(=O)O)NC(=O)CNC(=O)[C@H](CCCNC(=N)N)NC(=O)[C@@]13C[C@@H]23 | 8.62 | 7.59
COC(=O)N1C[C@H]2C[C@H]3C[C@]31C(=O)N[C@@H](CCCNC(=N)N)C(=O)NCC(=O)N[C@@H](CC(=O)O)C(=O)N2 | 7.47 | 7.82
